Data from patent publication US20150018294A1, “MODULATORS OF TOUSLED KINASE IN CELLULAR PROCESSES” (priority 2012, published 2015).
Entries after “also recorded” stand apart in the source; their conditions may differ.

Columns and labels:
TLK1B = target: T1, TLK1B (Homo sapiens, UniProt Q9UKI8); assay: TLK1B kinase assay (auto kinase assay with γ 32P ATP; recombinant TLK1B with Rad9 peptide); assay type: biochemical; conditions: for activity on TLK (TLK kinase assays): inactive defined at concentrations <10 μM
T1 sequence (Q9UKI8 1-549 isoform Q9UKI8-3): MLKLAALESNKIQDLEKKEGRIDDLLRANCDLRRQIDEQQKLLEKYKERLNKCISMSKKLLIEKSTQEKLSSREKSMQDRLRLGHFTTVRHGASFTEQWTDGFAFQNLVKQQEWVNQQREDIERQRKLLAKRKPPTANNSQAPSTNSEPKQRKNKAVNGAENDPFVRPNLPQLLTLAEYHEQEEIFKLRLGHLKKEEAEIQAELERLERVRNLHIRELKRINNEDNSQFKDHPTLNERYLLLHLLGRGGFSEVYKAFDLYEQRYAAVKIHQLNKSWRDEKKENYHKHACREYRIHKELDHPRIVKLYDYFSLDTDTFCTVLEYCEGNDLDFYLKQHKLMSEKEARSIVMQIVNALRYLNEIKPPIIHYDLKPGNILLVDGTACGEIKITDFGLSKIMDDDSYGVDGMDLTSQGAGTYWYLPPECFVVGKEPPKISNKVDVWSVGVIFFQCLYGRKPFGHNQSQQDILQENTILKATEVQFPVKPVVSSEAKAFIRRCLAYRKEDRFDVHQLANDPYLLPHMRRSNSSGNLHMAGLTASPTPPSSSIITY
Description: To identify inhibitors of TLK, we developed a high throughput screen with recombinant TLK1B, a small Rad9 peptide and the ADP Hunter reagent (DiscoveRx). Using this assay, the Innovative North Louisiana Experimental Therapeutics (INLET) screening core (affiliated with the FWCC) screened the Prestwick library, two other proprietary libraries, and a subset of the ChemDiv library (˜6000 compounds).
Following the initial fluorescent screen at a compound concentration of ˜5 μM, potential hits were tested with a more sensitive auto kinase assay with γ 32P ATP. Inhibition of auto phosphorylation was confirmed by TCA precipitable counts (FIG. 1A). The inhibitors are highly specific for TLKs. […] We have additional evidence for direct binding of these compounds to the recombinant protein (to be published elsewhere).
TlK1 immune complexes isolated from […] protein extracts using abtiserum made in our lab and Protein A beads. Adsorbed proteins were washed twice in kinase assay buffer (KAB) (50 mM HEPES pH 7.2, 10 mM MgCl2, 5 mM MnCl2, 2.5 mM EGTA, 1 mM DTT, 1 mM NaF, 0.2 mM sodium o vanadate, […] leupeptin, 2 g/ml aprotinin) and incubated for 15-30 min at 30° C. in KAB supplemented with 10 µM ATP, 10 Ci [−32P]ATP (>5000 Ci/mmol, GE). The proteins were separated on 10% SDS-PAGE gels, transferred to nitrocellulose before exposure on a Phosphorlmager; and then processed for WB with TLK1 antiserum. For kinase assays with recombinant TLK1B protein, the reactions were similar, and carried out with 10 ng TLK1B and 50 ng Rad9 peptide substrate. These were carried out to confirm the initial “hits” from the screen and further to obtain accurate ID50 values for the various inhibitors.

D2 receptor = D2 receptor (Homo sapiens, UniProt P14416); conditions: cited from earlier work
[1] = test system: Rad9 S328 phosphorylation in DU145 cells; assay: Rad9 S328 phosphorylation and checkpoint markers in DU145 cells after H2O2; assay type: cell-based, human
Description: The inhibitors worked as expected on the pattern of phosphorylation of Rad9 […]. After treatment of DU145 cells with H2O2 for 10 min to generate breaks, there is a corresponding wave of phosphorylation and dephosphorylation of […] after completion of repair (FIG. 5) that matches the pattern of activity of TLK1/1B TLKs are the only known kinases that phosphorylate Rad9 […] 4. Generation of DSBs causes transient inhibition of TLK1 and simultaneous synthesis of TLK1B, which then results in hyper phosphorylation of […] upon restoration of kinase activity [FIG. 5A; 5]. Once H2O2 is degraded and most DNA breaks are repaired, the phosphorylation returns to baseline. The inhibitors, PPH (LS125) in particular, blocked the activation of TLK and consequent phosphorylation of Rad9 ([…]) (5C). […] FIG. 5). A key role of TLKs is then to participate in restoration of cell cycle upon completion of repair. Interfering with this process has dire consequences for cell viability; more likely for cancer cells that are genetically more unstable and already have defects in DNA repair functions, if not just for their reliance on these kinases.

cell cycle = assay: Cell cycle and apoptosis, with or without doxo; assay type: cell-based; conditions: inhibitor alone, 15 μM
Description: A matching experimental set was processed by WB for evidence of cleaved PARP, and possible effects on ClnD1 accumulation, which occurs in late G1 and throughout S phases. […] The

[2] = test system: stalled replication forks; assay: Restart of stalled replication forks after release from hydroxyurea; assay type: cell-based; conditions: after release from hydroxyurea (HU)
DNA PK = DNA PK (Homo sapiens, UniProt P78527); conditions: cited from earlier work
[3] = test system: kinase panel (KinomeScan); assay: KinomeScan kinase panel (DiscoverRx); assay type: binding; conditions: significantly inhibited = >60% at 10 μM
panel of cell lines = assay: Doubling in a larger panel of cell lines; assay type: cell-based; conditions: inhibitor alone
Description: inhibitors had generally similar potency in additive killing with doxo in both DU145 and PC3 (FIG. 6). The RMT potentiation is not limited to these two CaP cell lines, but is also true for MDA MB231 BCA cells (FIG. 6). […] The TLK inhibitors by themselves had little effect on MDA231 viability and doubling (Sup. FIG. 3). […] This is consistent with their proposed mechanism as inhibitors of DSB repair.

PC 3 (human CaP cells) [4] = assay: IHC analysis of excised PC 3 tumors; parameters: species or system SCID/bg mice; conditions: mouse, in vivo
Description: Some features are immediately noticeable even upon H&E staining that could explain the tumor growth patterns. […] We interpret this as being the result of accumulation of DNA damage, including DSBs, which are not promptly repaired, even as they may be expected to occur spontaneously in many cells in the harsh environment of tumor growth. This has in fact been reported before and was attributed to localized hypoxia 24. […] The staining was not negative, as one may think, since inspection at higher magnification confirmed the expected pattern of exclusively nuclear staining and lower intensity in nucleoli. […] This is consistent with the γH2AX pattern, showing a large number of cells harboring repair foci, and thus likely arrested in replication (or progressing slowly through S phase). To further establish this, we looked at presence of RPA foci, which is indicative of stalled forks25. As expected from the large number of proliferating cells (PCNA positive) in control tumors, RPA1 Staining was very strong, and particularly in focal areas. RPA1 staining in tumors from doxo treated mice was interesting. […] In tumors from mice treated with doxo+THD, staining for RPA was very weak and consistent to that obtained for PCNA. […] However, we did stain for P Rad9 (S328) to confirm that the effects were mediated via TLK inhibition, in what we propose is part of a checkpoint deactivation mechanism following repair of spontaneous DNA damage. Indeed, numerous cells stained lightly for P Rad9 in untreated tumor cells in fact, they are perhaps a larger proportion than those staining for γH2AX that presumably represent cells with unrepaired DSBs.

MDA 231-Luc = MDA 231-Luc xenograft model; assay type: in vivo; conditions: female SCID/bg mice, treatment groups as in PC 3 study
Description: We used the breast cancer model cell line MDA 231-Luc, for more precise quantitation of tumor growth (photon emission is linear with the tumor cell number). Female SCID/bg mice (N=8 per group) received 1×10^6 cells and when the tumors reached ˜500 mm3 (˜104 photons/sec) they were assigned to four treatment groups, as in the study above (Sup. FIG. 4).

PC 3 (human CaP cells) [5] = conditions: THD 0.25 mg daily oral gavage; doxo 1 mg/kg intraperitoneal days 54, 68, 95
Description: PC 3 model. A study was undertaken to investigate the in vivo efficacy of THD compared to doxo and to determine any sensitization conferred to the tumor cells by treatment with a combination of the two drugs. Eighty male SCID/bg mice received 1×106 PC 3 (human CaP cells) cells subcutaneous into their flanks. At day 49 post s inoculation, we began weekly tumor measurements by caliper [volume=(L×W2)[…])]. […] At day 54, daily oral gavages of THD (0.25 mg in water) were given, and intraperitoneal injections of doxo (1 mg/kg; see arrows in FIG. 7) were at days 54, 68, and 95 (last day before euthanasia). […] In any case, the tumors were excised at the end of the experiment (before the control group tumors reached the preset end point of 1500 mm3) and processed for IHC analysis. The mice were dosed on last day before euthanasia with doxo to induce bona fide DSBs.

GST TLK1B = target: T2, GST TLK1B (Homo sapiens, UniProt Q9UKI8); assay: Binding to GST TLK1B affixed to Immobilon filter; conditions: color will not wash out
T2 sequence (Q9UKI8 1-549 isoform Q9UKI8-3): T1 sequence (Q9UKI8 1-549 isoform Q9UKI8-3)
Description: To determine how structurally related antipsychotic drugs might differ from each other and produce different biological effects, we analyzed optimized drug structures by quantum mechanics (QM) methods. Drugs of interest were built with MarvinSketch 5.3.2 (ChemAxon) for initial optimization of the 3D structure. For the panels shown here (Sup. FIG. 1), orbitals from the highest occupied molecular orbital (HOMO) and the lowest unoccupied molecular orbital (LUMO) have been depicted. […] The planar heterocyclic ring structure of staurosporine and its out of plane aminated glucose moiety are reminiscent of the structure of the phenothiazines. Bulky substituents on the main phenothiazine ring, such as fluorine groups, may only be tolerated in a certain orientation relative to the alkyl side chain, depending upon the reactivity of the side chain. Moreover, the fit at the binding site will be determined by whether active groups in the drugs (rings vs. side chains) serve as donors or acceptors in non bond interactions (e.g., it bonding and van der Waals interactions). While QM characterization of the drugs is not definitive, certain trends emerged from this analysis. In Sup. […] In fact, methylene blue, which stains nucleic acids but not most proteins, remains so tightly bound to GST TLK1B that after its affixation to an Immobilon filter the color bound to the protein will not wash out.

D2 receptor, sequence (P14416 whole entry): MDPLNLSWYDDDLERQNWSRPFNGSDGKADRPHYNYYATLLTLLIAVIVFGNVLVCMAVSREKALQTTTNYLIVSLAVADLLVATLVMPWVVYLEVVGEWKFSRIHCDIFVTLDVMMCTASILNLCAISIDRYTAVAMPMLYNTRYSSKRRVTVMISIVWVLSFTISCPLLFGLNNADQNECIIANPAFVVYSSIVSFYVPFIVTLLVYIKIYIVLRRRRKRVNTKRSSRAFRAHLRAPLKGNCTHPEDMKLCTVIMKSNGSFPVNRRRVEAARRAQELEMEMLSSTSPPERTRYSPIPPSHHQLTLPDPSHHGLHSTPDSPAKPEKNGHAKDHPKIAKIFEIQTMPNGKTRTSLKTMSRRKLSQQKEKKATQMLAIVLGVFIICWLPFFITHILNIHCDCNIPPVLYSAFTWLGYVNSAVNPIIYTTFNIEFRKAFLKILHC

OCCN1CCN(CCCN2c3ccccc3Sc3ccc(C(F)(F)F)cc32)CC1 [FF, fluphenazine]
activity on TLK (TLK kinase assays) (TLK1B): inactive for TLK | D2 receptor antagonism (D2 receptor): more potent D2 receptor antagonist than either TFP (active) or THD

CN1CCN(CCCN2c3ccccc3Sc3ccc(Cl)cc32)CC1 [PCP, prochlorperazine]
activity on TLK (TLK kinase assays) (TLK1B): inactive

CN(C)CCCN1c2ccccc2Sc2ccccc21 [PMZ, promazine]
activity on TLK (TLK kinase assays) (TLK1B): identified as TLK inhibitors | D2 receptor antagonism (D2 receptor): does not have much activity as a D2 antagonist

OCCN1CCN(CCCN2c3ccccc3Sc3ccc(Cl)cc32)CC1 [PPH, perphenazine]
activity on TLK (TLK kinase assays) (TLK1B): identified as TLK inhibitors | Chk1 activation (P Chk1 S345) ([1]; H2O2): persistent activation of Chk1 | cleavage of cdc25A ([1]; H2O2): elicited much faster | phosphorylation of Rad17 ([1]; H2O2): prolonged phosphorylation of Rad17 | activation of TLK and phosphorylation of Rad9 (S328) ([1]; H2O2 for 10 min): blocked the activation of TLK and consequent phosphorylation of Rad9 (S328)

CCSc1ccc2c(c1)N(CCCN1CCN(C)CC1)c1ccccc1S2 [TEZ, thiethylperazine]
activity on TLK (TLK kinase assays) (TLK1B): identified as TLK inhibitors

CN1CCN(CCCN2c3ccccc3Sc3ccc(C(F)(F)F)cc32)CC1 [TFP, trifluoperazine]
activity on TLK (TLK kinase assays) (TLK1B): active; also recorded: identified as TLK inhibitors | inhibition of TLKs (TLK1B; sub toxic concentrations 10-20 μM): completely inhibit TLKs | (apoptotic) sub G1 cells (cell cycle): very modest increase | cleaved PARP (cell cycle): very modest evidence of cleaved PARP | effect on the cell cycle (cell cycle): little effect on the cell cycle | restart of stalled replication forks and linked phosphorylation of Rad9 (S328) [2]: greatly extends this process | DNA PK inhibition (DNA PK; TFP 10-20 μM): not inhibited | reported inhibition of DNA PK in vitro, concentration (DNA PK; in vitro): 0.1 to 0.2 mM

CSc1ccc2c(c1)N(CCC1CCCCN1C)c1ccccc1S2 (stereo not drawn) [THD, Thioridazine]
inhibition of other kinases in the panel [3]: no other kinase in the panel was significantly inhibited | activity on TLK (TLK kinase assays) (TLK1B): active; also recorded: identified as TLK inhibitors | cell doubling / growth (panel of cell lines): not found very many cancer cell lines that were sensitive to THD | P Rad9 (S328) staining (PC 3 (human CaP cells) [4]): severe suppression of P Rad9 | PCNA positive cells (PC 3 (human CaP cells) [4]): significantly fewer PCNA positive cells | cellular density of the tumor (H&E staining) (PC 3 (human CaP cells) [4]): clearly reduced the tumor density | γH2AX positive cells (PC 3 (human CaP cells) [4]): a large proportion of positive staining cells | tumor growth (photon emission) (MDA 231-Luc): effective at controlling tumor increase

COc1cccc2c1C(=O)c1c(O)c3c(c(O)c1C2=O)C[C@@](O)(C(=O)CO)C[C@@H]3O[C@H]1C[C@H](N)[C@H](O)[C@H](C)O1 [doxo, doxorubicin]
tumor growth (PC 3 (human CaP cells) [5]): definite trend was seen for doxo reducing tumor growth | P Rad9 (S328) staining (PC 3 (human CaP cells) [4]): much stronger staining for P Rad9 | RPA staining (PC 3 (human CaP cells) [4]): overall staining was weaker for most areas of the section | cellular density of the tumor (H&E staining) (PC 3 (human CaP cells) [4]): only slightly decreased the cellular density of the tumor | γH2AX positive cells (PC 3 (human CaP cells) [4]): a large proportion | tumor growth (photon emission) (MDA 231-Luc): insufficient to stop growth of tumors

CN(C)c1ccc2nc3ccc(=[N+](C)C)cc-3sc2c1 [methylene blue]
activity on TLK (TLK kinase assays) (TLK1B): highly inhibitory | binding to GST TLK1B (GST TLK1B): tightly bound

c1ccc2c(c1)Nc1ccccc1S2 [phenothiazine]
activity on TLK (TLK kinase assays) (TLK1B): highly inhibitory
